{"source": "paper PMC10002220", "about": "“In Vivo Reversal of P-Glycoprotein-Mediated Drug Resistance in a Breast Cancer Xenograft and in Leukemia Models Using a Novel, Potent, and Nontoxic Epicatechin EC31” (International Journal of Molecular Sciences, 2023)", "key": {"P-gp [1]": {"molecular_target": "T1, P-gp (Homo sapiens, UniProt P08183)", "T1 sequence (P08183 whole entry)": "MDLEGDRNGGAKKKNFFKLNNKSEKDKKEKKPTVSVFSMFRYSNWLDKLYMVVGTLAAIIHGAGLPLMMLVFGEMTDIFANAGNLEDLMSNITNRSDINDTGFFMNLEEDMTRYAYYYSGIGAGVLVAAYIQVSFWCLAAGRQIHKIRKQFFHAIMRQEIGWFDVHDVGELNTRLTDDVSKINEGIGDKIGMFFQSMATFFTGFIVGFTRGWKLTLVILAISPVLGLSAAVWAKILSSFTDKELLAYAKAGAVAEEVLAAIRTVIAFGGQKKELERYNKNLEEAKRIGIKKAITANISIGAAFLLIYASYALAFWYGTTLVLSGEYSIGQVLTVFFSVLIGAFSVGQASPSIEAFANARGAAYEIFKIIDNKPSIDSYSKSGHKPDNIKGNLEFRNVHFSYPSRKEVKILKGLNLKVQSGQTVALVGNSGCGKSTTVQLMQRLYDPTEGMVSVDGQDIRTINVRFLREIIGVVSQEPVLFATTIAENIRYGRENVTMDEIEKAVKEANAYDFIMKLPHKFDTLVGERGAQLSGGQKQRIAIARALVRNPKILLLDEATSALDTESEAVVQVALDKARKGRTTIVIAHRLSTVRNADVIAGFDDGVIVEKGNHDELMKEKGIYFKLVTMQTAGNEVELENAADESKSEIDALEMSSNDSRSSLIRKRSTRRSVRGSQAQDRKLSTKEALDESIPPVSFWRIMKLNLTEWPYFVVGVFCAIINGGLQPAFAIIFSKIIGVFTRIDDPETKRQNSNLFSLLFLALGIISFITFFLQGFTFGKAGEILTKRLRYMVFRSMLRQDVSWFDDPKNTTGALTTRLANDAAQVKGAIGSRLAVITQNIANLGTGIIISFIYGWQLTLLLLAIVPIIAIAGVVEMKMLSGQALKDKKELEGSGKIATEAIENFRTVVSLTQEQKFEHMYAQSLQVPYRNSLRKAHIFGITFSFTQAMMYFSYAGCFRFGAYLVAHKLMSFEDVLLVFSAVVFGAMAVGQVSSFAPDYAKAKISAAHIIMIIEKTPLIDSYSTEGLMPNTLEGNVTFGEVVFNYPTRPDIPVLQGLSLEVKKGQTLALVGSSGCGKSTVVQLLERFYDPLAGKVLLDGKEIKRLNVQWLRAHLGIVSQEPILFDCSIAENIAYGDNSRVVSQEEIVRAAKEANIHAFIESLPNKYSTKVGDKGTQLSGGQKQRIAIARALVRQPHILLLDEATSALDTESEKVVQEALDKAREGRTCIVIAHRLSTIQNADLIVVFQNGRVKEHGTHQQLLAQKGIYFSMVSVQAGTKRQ", "set-up": "expressed in transfected cells; host or cells: MDA435/LCC6MDR (human breast cancer line, gift of Dr. Robert Clarke)", "conditions": "Cpds at 1 μM; IC50 of PTX without/with modulator; cited from earlier work"}, "P-gp [2]": {"molecular_target": "T1, P-gp", "test": "EC50 for reversing drug resistance in LCC6MDR cells (cell proliferation assay)", "conditions": "for EC50: EC50 for Reversing MDR, LCC6MDR", "text": "(§4) EC50 was defined as the concentration at which the modulator can reduce the IC50 of an anticancer drug by half in the P-gp-overexpressing cell lines. […] The P-gp-modulating activity of methylated catechin derivatives was further studied by measuring the EC50. […] Three P-gp-overexpressing cell lines were employed, including breast cancer cell line LCC6MDR, mouse leukemia cell line P388ADR, and human leukemia cell line K562/P-gp. The anticancer drugs tested included DOX, PTX, and VCR. All values were presented as mean ± standard error of mean. N = 3–6 independent experiments.\n(§5) About 6500 cells of LCC6MDR or 10,000 cells of P388ADR or K562/P-gp were seeded to each well of 96-well plate and were then incubated at 37 °C overnight. […] Cell viability was determined using CellTiter 96 AQueous Assay (Promega, Madison, WI, USA, #G1111) as reported previously [38]. The % of cell survival, IC50 of anticancer drugs towards the cell line, and EC50 of modulators were analyzed using nonlinear regression in Prism 5.0."}, "MRP1": {"tested_on": "MRP1", "conditions": "Cpds at 1 μM; IC50 of DOX without/with modulator; cited from earlier work"}, "K562 cells": {"tested_on": "K562 cells", "test": "EC31 efflux in K562 cells", "assay_type": "cell-based, human", "conditions": "after 150 min of efflux, preincubated with 1 µM", "description": "(§1) N = 3 independent experiments.\n(§2) After incubation, the medium was removed, and cells were washed with cold PBS twice. To the cell pellet, 300 μL of acetonitrile was added. The cells were sonicated for 10 min at 50 Hz using Intertek-CD-3800(A) sonicator. The lysed cells were then spun at 14,000 rpm for 10 min at room temperature. The supernatant containing EC31 was saved and was filtered with 0.45 µm syringe filter before UPLC-MS/MS analysis. For the efflux assay, the cells were preincubated with 1 μM EC31 at 37 °C for 2.5 h. The cells were then washed with PBS, were resuspended in drug-free medium, and were further incubated at 37 °C. The cells were collected at 0, 30, 60, and 150 min, respectively. The intracellular EC31 at different time points was analyzed as described in the Section 4.9."}, "P-gp [3]": {"tested_on": "P-gp", "test": "DOX efflux in P388ADR cells", "assay_type": "cell-based, mouse", "conditions": "1 µM modulator; after 180 min of efflux; P388ADR preloaded with 20 µM DOX", "description": "Figure 2 Effect of methylated catechin derivatives on intracellular DOX accumulation and DOX efflux in the P-gp-overexpressing cancer cells. […] Then, the cells were washed, and the intracellular DOX level was measured using flow cytometer. (A) LCC6MDR, (B) P388ADR, and (C) K562/P-gp. […] (D) In the efflux study, P388ADR cells were firstly incubated with 20 µM DOX for 45 min. […] At 60, 120, and 180 min, the cells were harvested, and the intracellular DOX level was measured. At 180 min, ** represents p < 0.01, and *** represents p < 0.001, both being relative to P388ADR incubated with DMSO only. […] N = 3 independent experiments. DMSO was used as a solvent control, and the highest amount used was 0.5%.\nWe investigated if methylated catechin derivatives could inhibit P-gp-mediated drug efflux in P-gp-overexpressing cells. […] Without a modulator, intracellularly, the DOX level was maintained at 80% and 11% after 180 min for P388 and P388ADR cells, respectively (Figure 2D). […] After 180 min of efflux, the intracellular DOX level could be maintained at 61% (p < 0.001), 59% (p < 0.01), 44 % (p < 0.001), and 37%, respectively (Figure 2D)."}, "K562/P-gp cells": {"tested_on": "K562/P-gp cells", "test": "EC31 efflux in K562/P-gp cells", "assay_type": "cell-based, human", "conditions": "after 150 min of efflux, preincubated with 1 µM", "description": "as §1, §2"}, "P-gp [4]": {"molecular_target": "T1, P-gp", "test": "Vanadate-sensitive P-gp ATPase activity assay (P-gp-Glo)", "conditions": "70 µM", "experimental": "(A) Effect of EC31 on vanadate-sensitive P-gp ATPase was studied. EC31, C25, and EGCG at different concentrations (10, 50, and 70 µM) were incubated with recombinant human P-gp microsomes and MgATP with or without sodium vanadate. After stopping the reaction, the remaining ATP level was determined by measuring the luciferase-generated luminescent signal. Vanadate-inhibitable P-gp ATPase activity was determined by calculating the luminescence signal in the samples with or without sodium vanadate. […] P-gp ATPase activity caused by compounds was normalized to basal P-gp ATPase activity (human P-gp microsome treated with DMSO) and was presented as fold change. A dashed line at 1.0-fold change represented the basal P-gp ATPase activity. […] The values in this figure were presented as mean ± standard error of mean. N = 3 independent experiments.\nP-gp ATPase activity was measured with P-gp-Glo assay system (Promega, #V3601) with human P-gp membrane vesicles as reported previously [32]. […] The reaction was initiated by adding MgATP and was then incubated at 37 °C for 1 h. […] The remaining ATP signal of luminescence was measured with a Clariostar microplate reader (BMG Labtech, Ortenberg, Germany). Vanadate-inhibitable P-gp ATPase activity was determined by calculating the luminescence signal in the samples with or without sodium vanadate."}, "LCC6MDR xenograft": {"tested_on": "LCC6MDR xenograft", "test": "In vivo PTX and EC31 accumulation in LCC6MDR tumor", "description": "(§3) (A) In vivo toxicity study of EC31 alone and of its combination with PTX was conducted. BALB/c mice were randomized into five groups with five mice in each group. Body weight of BALB/c mice during treatments was measured every two days. The treatment groups included (1) solvent control (5% NMP + 5% Cremophor EL + 90% PBS to dissolve EC31 and 5% Ethanol + 5% Cremophor EL + 90% PBS to dissolve PTX), (2) PTX (12 mg/kg i.v.), (3) EC31 (30 mg/kg i.p.), (4) EC31 (30 mg/kg i.p.) + PTX (12 mg/kg i.v.), or (5) EC31 (60 mg/kg i.p.) + PTX (12 mg/kg i.v.). The administration was performed every other day 12 times (q2d x 12). The loss of body weight or appetite and treatment-related mortality were monitored and defined as toxicity. (B) BALB/c nude mice were subcutaneously xenografted with LCC6MDR. When the tumor reached 150–300 mm^3, the mice were randomized and administered once with (1) EC31 alone, (2) PTX alone, or (3) EC31 + PTX. […] The tumors were taken out, and their weights were measured. Intratumor concentration of EC31 or PTX was measured using UPLC-MS/MS, and the actual concentration of PTX or EC31 was normalized to the tumor weight. […] Tumor volume and body weight were monitored throughout the treatment period. […] The tumor volume, tumor weight, and doubling time were measured. The number of animal deaths was recorded during the treatment period. […]"}, "P-gp [5]": {"molecular_target": "T1, P-gp", "test": "EC50 for reversing drug resistance in K562/P-gp cells (cell proliferation assay)", "conditions": "EC50 for Reversing MDR", "text": "as §4, §5"}, "[6]": {"test": "In vivo toxicity study of EC31 alone and combined with PTX", "conditions": "q2d x 12", "description": "as §3"}}, "data": [{"smiles": "COc1cc(OC)c2c(c1)O[C@H](c1ccc(OC)c(OC)c1)[C@H](OC(=O)c1ccc(F)c(NC(=O)c3cc(OC)c(OC)c(OC)c3)c1)C2", "note": "[EC31]", "values": [{"measurement": "LCC6MDR P-gp-modulating activity RF (relative fold)", "setting": "P-gp [1]", "value": 69.3}, {"measurement": "EC50", "setting": "P-gp [2]; DOX Resistance, concentration that reduces IC50 of DOX by half", "value": "159 ± 21", "unit": "nM"}, {"measurement": "EC50", "setting": "P-gp [2]; PTX Resistance, concentration that reduces IC50 of PTX by half", "value": "94 ± 21", "unit": "nM"}, {"measurement": "fold lower EC50 than that of verapamil", "setting": "P-gp [2]; reversing PTX resistance in LCC6MDR", "value": "about 4.7 fold"}, {"measurement": "2008MRP1 MRP1-modulating activity RF (relative fold)", "setting": "MRP1", "value": 1.3}, {"measurement": "EC31 remaining in cells", "setting": "K562 cells", "value": "about 23%"}, {"measurement": "Relative intracellular DOX level (%)", "setting": "P-gp [3]", "value": 44, "unit": "%"}, {"measurement": "EC31 remaining in cells", "setting": "K562/P-gp cells", "value": "~16", "unit": "%"}, {"measurement": "P-gp ATPase activity, fold change relative to basal", "setting": "P-gp [4]", "value": "≤ 2.1", "unit": "fold"}, {"measurement": "increase of intratumor PTX level compared to PTX alone", "setting": "LCC6MDR xenograft; EC31 30 mg/kg i.p. + PTX 12 mg/kg i.v., at 180 min", "value": 6, "unit": "fold"}, {"measurement": "time intratumor EC31 is maintained above its in vitro EC50 (94 nM)", "setting": "LCC6MDR xenograft; EC31 alone 30 mg/kg i.p., LCC6MDR xenograft", "value": 420, "unit": "min"}, {"measurement": "EC50", "setting": "P-gp [5]; DOX Resistance, K562/P-gp, concentration that reduces IC50 of DOX by half", "value": "93 ± 33", "unit": "nM"}, {"measurement": "EC50", "setting": "P-gp [5]; VCR Resistance, K562, concentration that reduces IC50 of VCR by half, column head prints K562", "value": "37 ± 10", "unit": "nM"}, {"measurement": "mortality or toxicity symptoms", "setting": "[6]; EC31 30 mg/kg i.p. alone", "value": "did not cause any mortality or toxicity symptoms"}, {"measurement": "body weight loss", "setting": "[6]; EC31 30 or 60 mg/kg i.p. + PTX 12 mg/kg i.v.", "value": "≤ 15", "unit": "%"}]}]}
